According to patent publication US8198231B2, “Compositions and methods for treatment of staphylococcal infection while suppressing formation of antibiotic-resistant strains” (priority 1999, dated 2012):

Tests used:
[1] = system: staphylococcal infected rabbits; test: Rabbit model of aortic valve endocarditis; format: in vivo
Source text: The simultaneous treatment of staphylococcal infection with suppression of resistant strain formation is an exciting and widely useful invention nowhere predicted in the art. This invention offers the possibility of treating staphylococcal infections while suppressing the generation of strains resistant to any or all active agents administered.

[2] = system: strains 27619, Col, 27227 and VA348; test: Checkerboard susceptibility testing of lysostaphin and oxacillin; format: cell-based; settings: oxacillin in concentrations up to 1 μg/ml; all strains tested
Method: Checkerboard susceptibility testing was conducted to determine whether simultaneous administration of lysostaphin and oxacillin (a β-lactam) would be effective in suppressing the development of resistance. Oxacillin concentrations varied between 0.0156 μg/ml and 1 μg/ml. Lysostaphin concentrations varied between 0.00048 and 0.9 μg/ml. Four strains were tested for evidence of synergy between lysostaphin and oxacillin; 27619, Col, 27227 and VA348.

[3] = lysostaphin 1 mg/kg bid (low dose), alone or together with nafcillin

lysostaphin
Bacterial counts in kidneys [1, 3]: high counts
Bacterial counts in vegetations [1, 3]: high counts
Recovery of resistant colonies/strains [1, 3]: recovery of a number of resistant colonies
Minimum dose for sterilization ([1]; lysostaphin alone): 5 mg/kg tid
MIC of lysostaphin in the presence of oxacillin [2]: unchanged
